How the values were obtained:
[1] = target: D(1A) dopamine receptor (Rattus norvegicus) (UniProt P18901); experiment: Tested for its affinity towards Dopamine receptor D1 in rat striatal membrane; type: cell membranes; settings: Striatum
[2] = species: Rattus norvegicus; experiment: Tested effective dose for maximal stimulation of adenylate cyclase in rat striatal membrane; type: functional; settings: Striatum
[3] = target: D(1A) dopamine receptor (Rattus norvegicus) (UniProt P18901)
[4] = target: D(2) dopamine receptor (Homo sapiens) (UniProt P14416)
D(2) dopamine receptor (Homo sapiens), sequence (P14416 whole entry): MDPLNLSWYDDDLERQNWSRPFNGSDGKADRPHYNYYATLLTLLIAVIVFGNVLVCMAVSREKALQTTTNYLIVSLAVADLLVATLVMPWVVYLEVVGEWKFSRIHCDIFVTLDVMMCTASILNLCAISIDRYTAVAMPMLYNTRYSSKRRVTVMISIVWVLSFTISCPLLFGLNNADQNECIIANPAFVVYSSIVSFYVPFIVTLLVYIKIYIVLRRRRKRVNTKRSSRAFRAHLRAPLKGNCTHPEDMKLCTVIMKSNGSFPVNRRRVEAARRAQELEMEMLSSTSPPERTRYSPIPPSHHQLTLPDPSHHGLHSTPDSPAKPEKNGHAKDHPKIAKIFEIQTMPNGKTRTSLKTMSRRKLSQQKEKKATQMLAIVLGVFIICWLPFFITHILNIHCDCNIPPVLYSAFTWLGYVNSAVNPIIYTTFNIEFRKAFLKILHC
Description: Tested for binding affinity towards D2 receptor labelled by [3H]- spiperone as radioligand

D(1A) dopamine receptor (Rattus norvegicus), sequence (P18901 whole entry): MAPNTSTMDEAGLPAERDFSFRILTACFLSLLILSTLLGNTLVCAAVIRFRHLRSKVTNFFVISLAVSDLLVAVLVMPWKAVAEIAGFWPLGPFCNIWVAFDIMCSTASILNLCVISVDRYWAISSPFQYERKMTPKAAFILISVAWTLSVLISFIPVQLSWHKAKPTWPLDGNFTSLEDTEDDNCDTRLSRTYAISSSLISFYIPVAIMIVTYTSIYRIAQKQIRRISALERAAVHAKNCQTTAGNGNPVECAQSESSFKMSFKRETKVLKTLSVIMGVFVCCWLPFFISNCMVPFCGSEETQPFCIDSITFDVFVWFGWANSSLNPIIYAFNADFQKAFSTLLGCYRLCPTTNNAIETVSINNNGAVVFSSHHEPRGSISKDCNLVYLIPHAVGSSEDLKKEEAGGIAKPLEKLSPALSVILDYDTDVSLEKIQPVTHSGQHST

With `CN1Cc2ccccc2[C@@H]2c3cccc4[nH]cc(c34)C[C@H]21` the pD2 [1] was 6.1.

Work on `Oc1cc2c(cc1O)[C@H]1c3ccccc3CN[C@@H]1CC2` (racemic) yielded a Stimulation [2] of 95% and a K0.5 [3] of 11.6 nM.

With `Oc1cc2c(cc1O)[C@H]1c3ccccc3CN[C@@H]1CC2` (stereo in doubt; (+)-2) the Stimulation [2] was 105%, the K0.5 [4] was 87.7 nM and the K0.5 [3] was 5.6 nM.

`Oc1cc2c(cc1O)[C@H]1c3ccccc3CN[C@@H]1CC2` (stereo in doubt; (-)-2) was tested, and the K0.5 [3] was 149 nM.

— ChEMBL document CHEMBL1127850
